Among the test systems are A498 renal; A549 NSCLC; COLO 205 colon; DU-145 prostate; HCT-116 colon; IGROV1 ovarian; KM12 colon; LOX IMVI melanoma; MALME-3M melanoma; MCF7 breast; MDA-MB-435; NCI-H460 lung; OVCAR-3 ovarian; SF-268 CNS; SF-295 CNS; SR leukemia; SW-620 colon; CCRF-CEM leukemia; SF-539 CNS.
Holding throughout (assay): growth of human tumour cells (NCI), 48 h

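The compound was tested at five concentrations on cells cultured in 96-well plates, with a 48-hour exposure period. At the TGI there is no net growth.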

Turning to `CC1=NN(c2ccccc2Cl)C2(C1)C(Cl)C(=O)N2c1nc2ccccc2s1` (configuration not stated), the TGI in the experiment with A498 renal, in the experiment on A549 NSCLC, in the experiment on COLO 205 colon, in the experiment on DU-145 prostate, in the experiment on HCT-116 colon and in the experiment on IGROV1 ovarian was > 100 µM each time. Moreover, the TGI in the experiment on KM12 colon was > 100 µM; in the experiment with LOX IMVI melanoma, 33.7 µM; in the experiment with MALME-3M melanoma, > 100 µM; with MCF7 breast, > 100 µM; in the experiment on MDA-MB-435 it was > 100 µM; in the experiment with NCI-H460 lung, > 100 µM. Moreover, the TGI was 53.1 µM in the experiment on OVCAR-3 ovarian; > 100 µM with SF-268 CNS; > 100 µM in the experiment with SF-295 CNS; 49.6 µM with SR leukemia; > 100 µM in the experiment with SW-620 colon.

Regarding `CC1CCC2C(C(=O)O[C@H]3C4C=CO[C@@H](OC5OC(CO)C(O)C(O)C5O)C4[C@@]4(CO)O[C@@H]34)=CO[C@@H](OC3OC(CO)C(O)C(O)C3O)C12` (some centres not stated), the TGI in the experiment with A498 renal, in the experiment with A549 NSCLC, in the experiment with CCRF-CEM leukemia, with COLO 205 colon, in the experiment with DU-145 prostate and in the experiment on HCT-116 colon was > 10 µM throughout. Moreover, the TGI with IGROV1 ovarian, in the experiment with KM12 colon, in the experiment with LOX IMVI melanoma, with MALME-3M melanoma, in the experiment with MCF7 breast and with MDA-MB-435 was > 10 µM each time. For the same compound, the TGI in the experiment with NCI-H460 lung, in the experiment on OVCAR-3 ovarian, in the experiment on SF-268 CNS, with SF-295 CNS, with SF-539 CNS and with SW-620 colon was > 10 µM in each case.

With `CCOC1OC(CO[Si](C)(C)C(C)(C)C)C(O)CC1n1ccc(=O)[nH]c1=O` (configuration not stated), the TGI with A498 renal was > 100 µM; with A549 NSCLC, > 100 µM; in the experiment with COLO 205 colon, > 100 µM; in the experiment on DU-145 prostate, > 100 µM; in the experiment on HCT-116 colon it was 30.7 µM; in the experiment with IGROV1 ovarian, 48.6 µM. Also, the TGI is > 100 µM with KM12 colon; 31.6 µM with LOX IMVI melanoma; > 100 µM in the experiment on MALME-3M melanoma; 88.7 µM in the experiment with MCF7 breast; > 100 µM in the experiment with MDA-MB-435; > 100 µM in the experiment with NCI-H460 lung. Besides, the TGI with OVCAR-3 ovarian was > 100 µM; in the experiment on SF-268 CNS, > 100 µM; with SF-295 CNS, > 100 µM; in the experiment on SF-539 CNS it was > 100 µM; with SR leukemia, > 100 µM; with SW-620 colon it was 52 µM.

Regarding `COc1ccccc1OC/C(N=Cc1cccnc1)=N/NC(=O)c1ccncc1`, the TGI in the experiment with A498 renal, with A549 NSCLC, in the experiment with CCRF-CEM leukemia, in the experiment on COLO 205 colon, in the experiment on DU-145 prostate and in the experiment with HCT-116 colon was > 100 µM throughout. For the same compound, the TGI in the experiment with IGROV1 ovarian, with KM12 colon, in the experiment with LOX IMVI melanoma, in the experiment on MALME-3M melanoma, in the experiment with MCF7 breast and in the experiment with MDA-MB-435 was > 100 µM in each case. For the same compound, the TGI with NCI-H460 lung, with OVCAR-3 ovarian, with SF-268 CNS, with SF-295 CNS, with SF-539 CNS and in the experiment with SW-620 colon was > 100 µM in each case.

For `O=C1/C(=C/c2ccc([N+](=O)[O-])cc2)Oc2cc(O)ccc21`, the TGI in the experiment with A549 NSCLC is 92.9 µM; in the experiment on CCRF-CEM leukemia, 79.2 µM; in the experiment on DU-145 prostate it was > 100 µM; in the experiment on HCT-116 colon it was > 100 µM; in the experiment on IGROV1 ovarian it was > 100 µM; in the experiment with KM12 colon, > 100 µM. The TGI with MCF7 breast is > 100 µM; with MDA-MB-435, > 100 µM; in the experiment on NCI-H460 lung, > 100 µM; with OVCAR-3 ovarian, 73.8 µM; with SF-268 CNS, > 100 µM; in the experiment on SF-295 CNS, > 100 µM. The TGI was 94.4 µM in the experiment on SF-539 CNS, 46.1 µM in the experiment with SR leukemia and > 100 µM in the experiment on SW-620 colon.

Consider `CC(Oc1ccc(Cl)cc1Cl)C(=O)NN1C(=O)CC(=O)NC1=S` (configuration not stated), for which the TGI with A498 renal, in the experiment on A549 NSCLC, in the experiment with COLO 205 colon, in the experiment on DU-145 prostate, in the experiment with HCT-116 colon and with IGROV1 ovarian was > 100 µM in each case. In addition, the TGI in the experiment on KM12 colon, in the experiment on LOX IMVI melanoma, with MALME-3M melanoma, in the experiment with MCF7 breast, in the experiment with MDA-MB-435 and with NCI-H460 lung was > 100 µM in each case. For the same compound, the TGI in the experiment on OVCAR-3 ovarian, with SF-268 CNS, with SF-295 CNS, in the experiment with SF-539 CNS, in the experiment on SR leukemia and in the experiment on SW-620 colon was > 100 µM each time.

As for `CC(C)(C)c1cc(C(C)(C)C)c(SSc2c(C(C)(C)C)cc(C(C)(C)C)c(O)c2O)c(O)c1O`, the TGI turned out to be 27.5 µM in the experiment with A498 renal; 24 µM in the experiment on A549 NSCLC; 7.5 µM with CCRF-CEM leukemia; 27.5 µM in the experiment on COLO 205 colon; 23.2 µM with HCT-116 colon; 26.3 µM with IGROV1 ovarian. For the same compound, the TGI in the experiment on KM12 colon came to 25.4 µM; in the experiment with LOX IMVI melanoma, 23.6 µM; in the experiment on MALME-3M melanoma it was 36 µM; in the experiment with MCF7 breast it was 27.5 µM; with MDA-MB-435, 17.2 µM; in the experiment on NCI-H460 lung, 13.2 µM. For the same compound, the TGI amounted to 24.7 µM in the experiment with SF-268 CNS, 10.4 µM with SR leukemia and 24 µM with SW-620 colon.

Turning to `CCOC(=O)C1Cc2ccc(C)cc2C1=O` (configuration not stated), the TGI in the experiment with A549 NSCLC, in the experiment with CCRF-CEM leukemia, with COLO 205 colon, in the experiment with DU-145 prostate, with HCT-116 colon and in the experiment on IGROV1 ovarian was > 100 µM throughout. Besides, the TGI in the experiment on KM12 colon, with LOX IMVI melanoma, with MALME-3M melanoma, in the experiment with MCF7 breast, with MDA-MB-435 and with NCI-H460 lung was > 100 µM in each case. The TGI with OVCAR-3 ovarian, with SF-268 CNS, in the experiment with SF-295 CNS, in the experiment on SF-539 CNS, in the experiment with SR leukemia and with SW-620 colon was > 100 µM in each case.
